Test results as given in patent publication US12215082B1 (priority 2023, dated 2025).

Tested on: multidrug-resistant (MDR) strains of Mycobacterium tuberculosis
Assay: microbe, parasite or virus in culture
Format: cell-based
Settings: 192 h, read-out: MIC MDR-TB

Compound	MIC [mg/L]
O=C(C[n+]1ccc(/C=N/O)cc1)c1ccccc1.[Br-] [Compound 3a, (E)-4-((Hydroxyimino)methyl)-1-(2-oxo-2-phenylethyl)pyridin-1-ium bromide]	64
O=C(C[n+]1ccc(/C=N/O)cc1)c1ccccc1[N+](=O)[O-].[Br-] [Compound 3e, (E)-4-((Hydroxyimino)methyl)-1-(2-(2-nitrophenyl)-2-oxoethyl)pyridin-1-ium bromide]	64
N#Cc1ccc(C(=O)C[n+]2ccc(/C=N/O)cc2)cc1.[Br-] [Compound 3d, (E)-1-(2-(4-Cyanophenyl)-2-oxoethyl)-4-((hydroxyimino)methyl)pyridin-1-ium bromide]	128
O=C(C[n+]1ccc(/C=N/O)cc1)c1ccc(F)cc1.[Br-] [Compound 3c, (E)-1-(2-(4-Fluorophenyl)-2-oxoethyl)-4-((hydroxyimino)methyl)pyridin-1-ium bromide]	128
O=C(C[n+]1ccc(/C=N/O)cc1)c1ccc(Br)cc1.[Br-] [Compound 3b, (E)-1-(2-(4-Bromophenyl)-2-oxoethyl)-4-((hydroxyimino)methyl)pyridin-1-ium bromide]	64
